In patent US10433545B2, “Non-streaking durable composition for cleaning and disinfecting hard surfaces” (Ecolab USA Inc., priority 2016, dated 2019):

What was measured:
[1] = list of typical surfactants; CMC measured in water at 20 to 25 degrees C; cited from earlier work
feline calicivirus = experiment: FCV (feline calicivirus, norovirus surrogate) log reduction; assay type: cell-based; details: surfactant combined with Bardac 2050 quat
Protocol: Variations of this formula were then tested against feline calicivirus, which is norovirus surrogate. Bardac 2050 by itself was the control.
Quat was tested with each surfactant alone to determine which surfactant was interfering. Also, Lonzabac 12 was added to one formula. Streak testing was performed on each formula. FCV (feline calicivirus) testing was done in 400 ppm hard water with a 10 minute contact time and soil.

S. aureus = experiment: OECD method log reduction, S. aureus; assay type: cell-based, Staphylococcus aureus; details: 400 ppm water; 750 ppm quat
Protocol: The germicidal test methods referred to are those approved by the EPA for germicide registration in force at the time of the patent application. Staphylococcus aureus is the ATCC 6538 strain.
Formulas with passable or ok glass performance and formulas of interest were then tested for antimicrobial efficacy.
Four log reduction is considered passing for this method.

| Structure (SMILES) | CMC (ppm) [1] | FCV kill, result in words (feline calicivirus) | OECD log reduction Staph (S. aureus) |
| --- | --- | --- | --- |
| CCCCC(CC)CO[C@H]1O[C@H](CO)[C@@H](O)[C@H](O)[C@H]1O (stereo partly drawn) [AG 6202, a-D-Glucopyranoside, 2-ethylhexyl] | 14000 ppm | does not | – |
| CCCCCCCCCC[N+](C)(C)CCCCCCCCCC.[Cl-] [Bardac 2250, Didecyldimethylammoniumchloride] | – | – | 1.6 log |
| CCCCCCCCCCCC[N+](C)(C)[O-] [Barlox 12, Lauryldimethyl amine oxide] | – | interferes with FCV kill | – |
